Measurements from patent publication US20130096116A1, “TREATMENT OF PHARMACOLOGICAL-INDUCED HYPOCHLORHYDRIA” (Genentech, Inc., priority 2011, published 2013).
Converted amounts (≈) assume the structure as drawn. Counter-ions that a name gives are not always drawn. Like-named read-outs stand apart in the source and are kept apart here. Blank lines part the entries; values can stand above or below the molecule they belong to.

Legend:
[1] = pH solubility profile of GDC-0941 (shake flask method); assay type: physicochemical; settings: 50 mM USP buffer, aqueous buffer, thermodynamic from solid, 48 hours at 37° C.
Method: The solubility test was conducted using the shake flask method. […] Each sample was prepared at a volume of approximately 2 mL, with excess solid in each sample. […] Samples were then filtered and concentrations were determined by HPLC under reversed-phase conditions using a C18 column, and elution with a phosphate buffer (pH 6.5), acetonitrile gradient. The injection volume was 5 μL, with a flow rate of 1.2 mL/min and detection at 230 nm.

[2] = media with enough betaine HCl to lower the pH to 2.4 or below
[3] = Oral exposure of GDC-0941 in dogs with famotidine, pentagastrin or betaine HCl pretreatment; assay type: in vivo; settings: male, beagle, dog, plasma, 40 mg, 40 mg oral
Method: Group 2 dogs were pretreated with famotidine 40 mg tablet to induce hypochlorhydria and as a negative control. Group 3 dogs were pretreated with pentagastrin by intramuscular injection 6 mg/kg. Pentagastrin is a synthetic peptide which stimulates the secretion of […], pepsin, and intrinsic factor, and lowers the pH of the gut through physiologic stimulation of acid secretion. […] Group 5 dogs were pretreated with famotidine, then treated with betaine HCl, 2×750 mg tablets.
(§1) Group 1: no pretreatment (control)

[4] = Effect of rabeprazole on pharmacokinetics of GDC-0941 in patients with advanced solid tumors; assay type: in vivo; settings: cancer patients pretreated with rabeprazole 20 mg Days 4-8, Day 8 vs Day 1
[5] = Oral exposure of dasatinib and gastric pH in dogs with famotidine, pentagastrin or betaine HCl pretreatment; assay type: in vivo, beagle dogs
Method: Dogs were treated with dasatinib 50 mg tablet (Example 5). Dogs in each group received the following pretreatment: Group 1: no pretreatment (control); Group 2: famotidine 40 mg tablet orally, 3 hours prior to dasatinib; Group 3: pentagastrin by intramuscular injection (6 mg/kg) 30 min before dasatinib administration; Groups 4 and 5: Two betaine HCl 750 mg tablets were administered to the two groups as follows: one betaine HCl tablet orally 5 min before dasatinib and the other 20 min before dasatinib Group 5 was also treated with famotidine 40 mg tablet orally, 3 hours prior to dasatinib. […] Betaine HCl performs as well as pentagastrin, and improves dasatinib/famotidine exposure (AUC, FIG. 5C).
Dasatinib pharmacokinetics was evaluated in dogs with famotidine-induced hypochlorhydria (FIG. 5A). Dasatinib was administered as a 50 mg SPRYCEL® (Bristol-Myers Squibb) tablet. Famotidine 40 mg tablets were administered 3 hrs before dasatinib. Pentagastrin injection was administered intramuscularly 30 min prior before dasatinib administration. Two betaine HCl 750 mg tablets administered at the following times: 1 orally 20 min and 5 min prior to dasatinib administration.
Five groups of naïve, male beagle dogs (n=4 per group) each received a different pretreatment prior to dasatinib treatment.
as §1
Group 2: famotidine 40 mg tablet orally, 3 hours prior to dasatinib
Group 3: pentagastrin by intramuscular injection (6 mg/kg) 30 min before dasatinib administration
Groups 4 and 5: Two betaine HCl 750 mg tablets were administered to the two groups as follows: one betaine HCl tablet orally 5 min before dasatinib and the other 20 min before dasatinib
Group 5: famotidine 40 mg tablet orally, 3 hours prior to dasatinib.

[6] = test system: gastric pH; assay: Gastric pH (Heidelberg capsule) after betaine HCl in healthy volunteers with rabeprazole-induced hypochlorhydria; assay type: in vivo
Method: The pH of the stomach was measured over time with a Heidelberg capsule with tether swallowed at t=0. […] Onset of effect of betaine HCl was rapid, with a mean time to pH<3 of 6.3 (±4.3) min, and its duration was adequate but temporary, with a gastric pH<3 and <4 lasting 72.5 (±32.9) and 76.8 (±30.4) min, respectively.
Dasatinib pharmacokinetics was evaluated in healthy volunteer subjects with rabeprazole-induced hypochlorhydria by dosing 20 mg oral rabeprazole twice daily for 4 days. On the morning (a.m.) of study day 5, subjects received an additional 20 mg oral rabeprazole, and the Heidelberg Capsule pH diagnostic system (HC) was used for continuous gastric pH monitoring. When gastric pH remained >4 for at least 15 min, a 1500 mg dose of betaine HCl was given orally, and gastric pH was monitored for 2 h. During part 2 of this study a 3-period crossover study, five of ten subjects each received: (A) 100 mg dasatinib (Control); (B) 100 mg dasatinib after rabeprazole pre-treatment; (C) 100 mg dasatinib, 1500 mg betaine HCl, after rabeprazole pre-treatment. For treatments B+C, 20 mg rabeprazole twice daily was given for 3 days prior to and on the a.m. of each study day. Gastric pH was monitored and DAS plasma concentrations were measured over 22 h (see study schematic below) with dasatinib concentration versus time results shown in FIG. 8A and exposure (AUC) in FIG. 8B.

[7] = cited from earlier work
[8] = cited from earlier work; remark: listed apart in the source
[9] = cited from earlier work; remark: listed apart in the source
[10] = cited from earlier work; remark: listed apart in the source
[11] = 100 mg dasatinib after 40 mg omeprazole daily for 4 days; cited from earlier work
[12] = single 50-mg dose 10 hours following 40 mg of famotidine

- solubility at 48 h ([1]; all tested pH values above pH 4.4, read-out: measured solubility): ~1 µg/mL (≈ 1.95 µM)
- solubility at 48 h ([1]; pH 1.0, read-out: solubility): ~800 µg/mL (≈ 1560 µM)
- solubility at 48 h ([1]; pH 3.0, read-out: solubility): ~8 µg/mL (≈ 15.6 µM)
- solubility at 48 h ([1]; pH 7.5, read-out: solubility): < 1 µg/mL
- drug rapidly dissolved and maintained in solution [2]: greater than 90%
- AUC ([3]; Group 4 (betaine HCl only pretreatment)): 7.38 µM·h
- AUC ([3]; Group 5 (famotidine+betaine HCl), excluding animal D501 (n=3)): 7.12 µM·h
- decrease of GDC-0941 (AUC, FIG. 7) [4]: 40%
Compound: CS(=O)(=O)N1CCN(Cc2cc3nc(-c4cccc5[nH]ncc45)nc(N4CCOCC4)c3s2)CC1 [GDC-0941, 4-(2-(1H-indazol-4-yl)-6-((4-(methylsulfonyl)piperazin-1-yl)methyl)thieno[3,2-d]pyrimidin-4-yl)morpholine]

Compound: C[N+](C)(C)CC(=O)O [betaine HCl, Betaine hydrochloride]
- effect on gastric pH ([5]; dogs treated with famotidine+betaine HCl): reversal of hypochlorhydria
- lowering of gastric pH ([6]; 30 min interval after dosing 1500 mg, N=6): 4.54 (±0.46) units
- duration of gastric pH<3 ([6]; after 1500 mg betaine HCl): 72.5 (±32.9) min
- duration of gastric pH<4 ([6]; after 1500 mg betaine HCl): 76.8 (±30.4) min
- mean time to pH<3 ([6]; after 1500 mg betaine HCl): 6.3 (±4.3) min

Compound: NC(N)=Nc1nc(CSCCC(N)=NS(N)(=O)=O)cs1 [famotidine]
- effect on gastric pH ([5]; dogs pretreated with famotidine 40 mg): significant hypochlorhydria (increased gastric pH)

Compound: Cc1nc(Nc2ncc(C(=O)Nc3c(C)cccc3Cl)s2)cc(N2CCN(CCO)CC2)n1 [dasatinib, Dasatinib]
- exposure ([7]; Maalox 30 mL administered 2 hours prior to dasatinib): unchanged
- reduction of bioavailability (AUC) ([7]; dasatinib 50 mg BID, famotidine 40 mg 10 hours prior): 61%
- reduction of AUC0-12 [7, 12]: ~60%
- reduction of Cmax [7, 12]: ~60%
- dasatinib levels ([5]; dogs, dasatinib+famotidine without betaine HCl, 50 mg tablet): at or below the limits of assay detection
- between-subject variability in Ka ([8]; in vivo): exceeded 100%
- between-subject variability in relative bioavailability (FR) ([8]; in vivo): 33%
- inter-occasion variability (IOV) within a subject in FR ([8]; in vivo): 44%
- decrease of FR with use of PPI ([8]; not statistically significant): 17%
- solubility ([9]; pH 2.6, 24° C.): ~18000 µg/mL (≈ 36900 µM)
- solubility ([9]; pH 4.0, 24° C.): ~690 µg/mL (≈ 1410 µM)
- solubility ([9]; pH 4.28, 24° C.): 205 µg/mL (≈ 420 µM)
- solubility ([9]; pH 7.0, 24° C.): < 1 µg/mL
- solubility of highest commercial dose strength (140 mg) in 250 mL of water ([9]; pH range of 4.3 to 7.0 at 24° C.): not soluble
- increase in AUCinf ([10]; high fat meal): 14%
- increase in AUCinf ([10]; low fat meal): 21%
- decrease of AUCinf [11]: 43%
- decrease of Cmax [11]: 42%
- reduction of bioavailability [11]: ~40%
